Test [1] concerns the target hNurr1_RXRγFL (NURR1/RXRγ heterodimer) (Homo sapiens, UniProt P43354+P48443). Briefly: Transactivation assay in Cos-7 cells, NURR-1-Gal4 / RXRγ, luciferase reporter. To be noted: for Emax: COS-7, read-out: hNurr1_RXRγFL Eff (%), efficacy in % relative to the reference XCT0135908 at 2·10^−5 M (=100%); for EC50: Cos-7 cells, overnight incubation. The class given is cell-based. As for the experimental part:
(§1) First, the capacity of the compounds according to the invention for acting as an activator of the heterodimers formed by the NURR-1 nuclear receptor and the RXR nuclear receptors was measured by an in vitro assay.
(§2) A transactivation assay was used as a primary screening assay. Cos-7 cells were co-transfected with a plasmid expressing a chimera of the human receptor NURR-1-Gal4, a plasmid expressing the human receptor RXR (RXRα or RXRγ receptor) and a reporter plasmid 5Gal4pGL3-TK-Luc. The transfections were performed by means of a chemical agent (Jet PEI).
(§3) The transfected cells were distributed in 384-well plates and left resting for 24 hours.
(§4) After 24 hours, the culture medium was changed. The products according to the invention were added (final concentration between 10^−4 and 3·10^−10 M) to the culture medium. After overnight incubation, luciferase expression was measured after addition of “SteadyGlo” according to the manufacturer's instructions (Promega).
(§5) 4-[[6-Methyl-2-phenyl-5-(2-prop enyl)-4-pyrimidinyl]amino]-benzoic acid (called XCT0135908, which was described in the article by Wallen-Mackenzie et al. published in Genes & Development 17, pages 3036-3047) at 2·10^−5 M (RXR agonist) was used as reference.
(§6) The levels of induction (designated by “efficiency”) were calculated relative to the baseline activity of each heterodimer. The results were expressed as a percentage of the level of induction relative to the level of induction obtained with the reference (the level of induction of the reference is arbitrarily taken to be 100%).

Test [2] has as its target hNurr1_RXRαFL (NURR1/RXRα heterodimer) (Homo sapiens, UniProt P19793+P43354). In words: Transactivation assay in Cos-7 cells, NURR-1-Gal4 / RXRα, luciferase reporter. The test is classed as cell-based. To be noted: for Emax: COS-7, read-out: hNurr1_RXRαFL Eff (%), efficacy in % relative to the reference XCT0135908 at 2·10^−5 M (=100%); for EC50: Cos-7 cells, overnight incubation. The procedure: as §1, §2, §3, §4, §5, §6
A general note: Reporter assays use an easily measured gene product as a stand-in for the process of interest.

What is called EC50 is the concentration that produces a half-maximal response.

Sequence of hNurr1_RXRγFL (NURR1/RXRγ heterodimer) (P43354 328-598): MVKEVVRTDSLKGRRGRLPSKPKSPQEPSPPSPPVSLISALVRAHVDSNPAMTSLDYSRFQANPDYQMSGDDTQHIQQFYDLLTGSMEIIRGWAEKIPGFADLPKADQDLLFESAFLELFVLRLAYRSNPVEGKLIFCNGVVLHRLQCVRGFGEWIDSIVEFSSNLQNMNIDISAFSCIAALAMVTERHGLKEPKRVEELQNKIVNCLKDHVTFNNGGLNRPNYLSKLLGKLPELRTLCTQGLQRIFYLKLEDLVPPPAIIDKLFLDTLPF
Sequence of hNurr1_RXRγFL (NURR1/RXRγ heterodimer) (P48443 whole entry, the tested form may be a part): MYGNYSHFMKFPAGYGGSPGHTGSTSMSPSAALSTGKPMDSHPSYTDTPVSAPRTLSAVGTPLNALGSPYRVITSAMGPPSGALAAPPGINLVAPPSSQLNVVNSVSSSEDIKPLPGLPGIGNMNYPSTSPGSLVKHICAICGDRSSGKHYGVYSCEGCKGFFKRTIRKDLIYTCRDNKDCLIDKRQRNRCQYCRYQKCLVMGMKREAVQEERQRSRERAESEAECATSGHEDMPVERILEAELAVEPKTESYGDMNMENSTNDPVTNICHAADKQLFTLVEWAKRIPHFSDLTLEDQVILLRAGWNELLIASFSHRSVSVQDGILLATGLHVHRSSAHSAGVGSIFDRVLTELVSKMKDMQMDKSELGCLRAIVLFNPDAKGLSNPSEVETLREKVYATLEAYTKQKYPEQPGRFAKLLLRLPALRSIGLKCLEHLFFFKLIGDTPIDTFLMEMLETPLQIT
Sequence of hNurr1_RXRαFL (NURR1/RXRα heterodimer) (P19793 whole entry, the tested form may be a part): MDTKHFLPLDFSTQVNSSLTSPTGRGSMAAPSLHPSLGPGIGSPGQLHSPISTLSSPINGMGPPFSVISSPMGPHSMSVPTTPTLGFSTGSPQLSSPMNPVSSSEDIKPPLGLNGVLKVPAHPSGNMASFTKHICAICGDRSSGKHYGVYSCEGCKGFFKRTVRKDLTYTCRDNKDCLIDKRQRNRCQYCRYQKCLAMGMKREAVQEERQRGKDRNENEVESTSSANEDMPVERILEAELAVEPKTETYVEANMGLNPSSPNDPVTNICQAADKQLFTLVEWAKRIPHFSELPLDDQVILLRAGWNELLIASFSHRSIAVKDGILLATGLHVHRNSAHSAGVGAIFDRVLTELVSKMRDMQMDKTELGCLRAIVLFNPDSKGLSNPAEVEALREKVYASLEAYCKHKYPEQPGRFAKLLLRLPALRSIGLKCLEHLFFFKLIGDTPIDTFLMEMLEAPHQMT
Sequence of hNurr1_RXRαFL (NURR1/RXRα heterodimer) (P43354 328-598): as the sequence (P43354 328-598) above

Consider `O=C(O)c1ccc(Cc2cc3cc(C(F)(F)F)ccc3n2S(=O)(=O)c2ccc3c(c2)OCCO3)cc1` [Example 22, 4-[[1-[(2,3-dihydro-1,4-benzodioxin-6-yl)sulfonyl]-5-(trifluoromethyl)-1H-indol-2-yl]methyl]benzoic acid], for which the figures for the Emax in test [1] and in test [2] were 43% and 45%, respectively. Also, the EC50 was 346 nM in test [1] and 207 nM in test [2].

As to `CC(C)(C)c1cccc(S(=O)(=O)n2c(Cc3ccc(C(=O)O)c(F)c3)cc3cc(C(F)(F)F)ccc32)c1` [Example 10, 2-fluoro-4-[[1-[[3-(1,1-dimethylethyl)phenyl]sulfonyl]-5-(trifluoromethyl)-1H-indol-2-yl]methyl]benzoic acid], in test [1], the Emax came to 56% and the concentration giving a half-maximal response (EC50) worked out at 943 nM. In test [2], the Emax was 63% and the EC50 worked out at 406 nM.

As for `CC(C)(C)c1cccc(S(=O)(=O)n2c(Cc3ccc(-c4noc(=O)[nH]4)cc3)cc3cc(C(F)(F)F)ccc32)c1` [Example 222, 3-[[4-[1-[[3-(1,1-dimethylethyl)phenyl]sulfonyl]-5-(trifluoromethyl)-1H-indol-2-yl]methyl]-phenyl]-4H-[1,2,4]oxadiazol-5-one], the values for the Emax in test [1] and in test [2] were 55% and 62%, respectively. Also, the EC50 was 676 nM in test [1] and 367 nM in test [2].

On to `CC(C)c1ccc(S(=O)(=O)n2c(Cc3ccc(C(=O)O)c(Cl)c3)cc3cc(C(F)(F)F)ccc32)cc1` [Example 209, 4-[[1-[[4-(1-methylethyl)-phenyl]sulfonyl]-5-trifluoromethyl-1H-indol-2-yl]methyl]-2-chlorobenzoic acid], for which, in test [1], the Emax worked out at 51% and the EC50 stood at 741 nM. Further, in test [2], the Emax was determined as 69% and the concentration for a half-maximal effect (EC50) was 333 nM.

Consider `CC(C)(C)c1cccc(S(=O)(=O)n2c(Cc3nc(C(=O)O)cs3)cc3cc(C(F)(F)F)ccc32)c1` [Example 89, 2-[[1-[[3-(1,1-dimethylethyl)-phenyl]sulfonyl]-5-trifluoromethyl-1H-indol-2-yl]methyl]-thiazole-4-carboxylic acid], for which the Emax in test [1] stood at 62%; in test [2] it was 77%. In addition, the EC50 amounted to 611 nM in test [1] and 265 nM in test [2].

Take `CC(C)c1ccc(S(=O)(=O)n2c(Cc3ccc(C(=O)O)s3)cc3cc(C(F)(F)F)ccc32)cc1` [Example 71, 5-[[1-[[4-(1-methylethyl)-phenyl]sulfonyl]-5-trifluoromethyl-1H-indol-2-yl]methyl]-thiophene-2-carboxylic acid]: in test [1], the Emax is 82% and the EC50 is 95 nM. Besides, in test [2], the Emax came to 61% and the concentration for a half-maximal effect (EC50) turned out to be 47 nM.

As to `Cc1ccc2c(c1)cc(Cc1ccc(C(=O)O)cc1)n2S(=O)(=O)c1cccc(C(C)(C)C)c1` [Example 118, 4-[[1-[[3-(1,1-dimethylethyl)phenyl]sulfonyl]-5-(methyl)-1H-indol-2-yl]methyl]benzoic acid], in test [1], the Emax amounted to 65% and the concentration giving a half-maximal response (EC50) came to 473 nM. In addition, in test [2], the Emax was determined as 75% and the EC50 came out at 279 nM.

Regarding `O=C(O)c1ccc(Cc2cc3cc(C(F)(F)F)ccc3n2S(=O)(=O)c2cccc(-c3ccc(Cl)cc3)c2)cc1` [Example 146, 4-[[1-[4′-chloro-biphenyl-3-sulfonyl]-5-(trifluoromethyl)-1H-indol-2-yl]methyl]benzoic acid], the values for the Emax in test [1] and in test [2] were 24% and 43%, respectively. Further, the half-maximal effective concentration (EC50) amounted to 1180 nM in test [1] and 619 nM in test [2].

Turning to `Cc1cc(C)n(-c2ccc(S(=O)(=O)n3c(Cc4ccc(C(=O)O)cc4)cc4cc(C(F)(F)F)ccc43)cc2)n1` [Example 131, 4-[[1-[4-(3,5-dimethyl-pyrazol-1-yl)-phenylsulfonyl]-5-(trifluoromethyl)-1H-indol-2-yl]methyl]benzoic acid], in test [1], the Emax turned out to be 21% and it took 1480 nM to reach a half-maximal effect (EC50). In test [2], the Emax is 30% and the EC50 turned out to be 603 nM.

On to `CC(C)(C)c1cccc(S(=O)(=O)n2c(Cc3ccc(C(=O)O)cc3)c(F)c3cc(C(F)(F)F)ccc32)c1` [Example 149, 4-[[1-[[3-(1,1-dimethylethyl)phenyl]sulfonyl]-3-fluoro-5-(trifluoromethyl)-1H-indol-2-yl]methyl]-benzoic acid], for which, in test [1], the Emax came to 80% and the EC50 amounted to 225 nM. Moreover, in test [2], the Emax turned out to be 98% and the 50% effective concentration (EC50) came out at 94 nM.

On to `O=C(O)c1ccc(Cc2cc3cc(C(F)(F)F)ccc3n2S(=O)(=O)c2cc3ccccc3o2)cc1` [Example 122, 4-[[1-[benzofuran-2-sulfonyl]-5-(trifluoromethyl)-1H-indol-2-yl]methyl]benzoic acid], for which, in test [1], the Emax was determined as 54% and the EC50 is 680 nM. For the same molecule, in test [2], the Emax worked out at 62% and the 50% effective concentration (EC50) is 353 nM.

Consider `O=C(O)c1ccc(Cc2cc3cc(C(F)(F)F)ccc3n2S(=O)(=O)c2ccc(Cl)c(OC(F)F)c2)cc1` [Example 147, 4-[[1-[4-chloro-3-difluoromethoxy-phenylsulfonyl]-5-(trifluoromethyl)-1H-indol-2-yl]methyl]benzoic acid], for which the results for the Emax in test [1] and in test [2] were 30% and 49%, respectively. For the same molecule, the EC50 in test [1] came out at 1100 nM; in test [2] it was 825 nM.

Consider `CC(C)(C)c1cccc(S(=O)(=O)n2c(Cc3csc(C(=O)O)c3)cc3cc(C(F)(F)F)ccc32)c1` [Example 70, 4-[[1-[[3-(1,1-dimethylethyl)-phenyl]sulfonyl]-5-trifluoromethyl-1H-indol-2-yl]methyl]-thiophene-2-carboxylic acid], for which the Emax is 91% in test [1] and 94% in test [2]. Also, the EC50 came to 8 nM in test [1] and 5 nM in test [2].

For `O=C(O)c1ccc(Cc2cc3cc(Cl)ccc3n2S(=O)(=O)c2ccc(-c3ccc(F)cc3)cc2)cc1` [Example 179, 4-[[1-[4′-fluoro-biphenyl-4-sulfonyl]-5-(chloro)-1H-indol-2-yl]methyl]benzoic acid], in test [1], the Emax was 26% and the concentration for a half-maximal effect (EC50) is > 10000 nM. In test [2], the Emax stood at 62% and the EC50 amounted to 331 nM.

For the molecule `CC(C)COc1ccc(S(=O)(=O)n2c(Cc3ccc(C(=O)O)cc3)cc3cc(C(F)(F)F)ccc32)cc1` [Example 127, 4-[[1-[4-isobutoxy-phenylsulfonyl]-5-(trifluoromethyl)-1H-indol-2-yl]methyl]benzoic acid], the Emax in test [1] came to 45%; in test [2], 48%. Besides, the EC50 in test [1] came to 575 nM; in test [2], 263 nM.

On to `O=C(O)c1ccc(Cc2cc3cc(Cl)ccc3n2S(=O)(=O)c2ccc(F)c(F)c2)cc1` [Example 153, 4-[[1-[3-fluoro-4-fluoro-phenylsulfonyl]-5-(chloro)-1H-indol-2-yl]methyl]benzoic acid], for which, in test [1], the Emax was 63% and the midpoint of the response, the EC50, lay at 1390 nM. Further, in test [2], the Emax turned out to be 85% and the EC50 came to 851 nM.

Regarding `COC(=O)c1ccc(Cc2cc3cccc(F)c3n2S(=O)(=O)c2cccc(C(C)(C)C)c2)cc1` [Example 113, 4-[[1-[[3-(1,1-dimethylethyl)phenyl]sulfonyl]-7-fluoro-1H-indol-2-yl]methyl]benzoic acid, methyl ester], in test [1], the Emax was found to be 97% and the EC50 stood at 1860 nM. Moreover, in test [2], the Emax is 103% and the EC50 is > 10000 nM.

Turning to `COC(=O)c1ccc(Cc2cc3cc(C(C)(C)C)ccc3n2S(=O)(=O)c2cccc(C(C)(C)C)c2)cc1` [Example 108, 4-[[1-[[3-(1,1-dimethylethyl)phenyl]sulfonyl]-5-(tert-butyl)-1H-indol-2-yl]methyl]benzoic acid, methyl ester], in test [1], the Emax came to 77% and the EC50 was found to be 646 nM. In test [2], the Emax is 110% and the midpoint of the response, the EC50, lay at 157 nM.

As to `CC(C)(C)c1cccc(S(=O)(=O)n2c(C(F)c3ccc(C(=O)O)cc3)cc3cc(C(F)(F)F)ccc32)c1` (centres unmarked) [Example 217, 4-[[1-[[3-(1,1-dimethylethyl)phenyl]sulfonyl]-5-(trifluoromethyl)-1H-indol-2-yl]fluoromethyl]benzoic acid], in test [1], the Emax turned out to be 80% and the half-maximal effective concentration (EC50) is 355 nM. In addition, in test [2], the Emax came out at 83% and it took 149 nM to reach a half-maximal effect (EC50).

Turning to `C=C(c1ccc(C(=O)O)cc1)c1cc2cc(Cl)ccc2n1S(=O)(=O)c1ccc(C(C)C)cc1` [Example 102, 4-[1-[1[[4-(1-methylethyl)phenyl]sulfonyl]-5-(chloro)-1H-indol-2-yl]-1-ethenyl]-benzoic acid], the Emax stood at 27% in test [1] and 49% in test [2]. The EC50 in test [1] stood at 676 nM; in test [2] it was 363 nM.

The record behind these values is patent US20120232070A1, “Use of Indole Derivatives as Nurr-1 Activators for the Application Thereof as a Medicament for the Treatment of Parkinson's Disease” (Laboratoires Fournier SA, priority 2009, published 2012).
